Where two headings read alike, the source gives them in different places.
Assays:
[1] = therapeutic total cmax; ref PMID; cited from earlier work
[2] = ref DrugBank and Prescribers' Digital Reference database; cited from earlier work
[3] = system: primary human hepatocytes (PHH) 3D spheroids
[4] = system: clinical DILI in man; conditions: cited from earlier work
[5] = system: PHH 2D sandwich cultures; conditions: cited from earlier work
[6] = DILI classification score, ref Suzuki et al. (2010)
[7] = FDA drug labeling DILI concern, ref Chen et al., 2011
[8] = FDA drug labeling DILI score, ref Chen et al., 2011
[9] = clinical DILI classification in man (POS/NEG)
[10] = clinical DILI classification used in this study, Supplementary Table 2, ref Chen et al., 2011, Guo et al., 2005, O'Brien et al., 2006, Sakatis et al., 2012, Suzuki et al., 2010, Xu et al., 2008
[11] = clinical DILI classification, Supplementary Table 1, ref Chen et al., 2011, Guo et al., 2005, O'Brien et al., 2006, Sakatis et al., 2012, Suzuki et al., 2010, Xu et al., 2008
[12] = reported pattern of liver damage, Supplementary Table 2, ref literature
[13] = clinical DILI classification, ref Xu et al. (2008)
[14] = clinical hepatotoxicity classification, ref O'Brien et al. (2003)
[15] = PHH 2D sandwich cultures, 100x Cmax, ref Xu 2008

SMILES | Cmax [1] [nM] | Extent of hepatic metabolism [2] | Chemically defined spheroids (this study) 20x [3] | Classified as ([4]; in vivo) | Clinical DILI class (panel heading of Figure 4) ([4]; in vivo) | DILI in vivo ([4]; in vivo) | FDA (0-8) ([4]; in vivo) | Type of DILI ([4]; in vivo) | Xu et al. (2008) ([4]; in vivo) | other results
CN1CCN(C2=Nc3cc(Cl)ccc3Nc3ccccc32)CC1 [Clozapine] | 2450 | Extensive | – | – | – | – | – | – | – | –
CC/C(=C(\c1ccccc1)c1ccc(OCCN(C)C)cc1)c1ccccc1 [Tamoxifen] | 160 | Extensive | – | – | – | – | – | – | – | –
CN(C)/N=N/c1[nH]cnc1C(N)=O [Dacarbazine] | 16600 | Extensive | Positive | POS | Severe DILI | POS | 6 | Hepatocellular injury | – | FDA (Severity) ([4]; in vivo): most DILI concern; Guo et al. (2005) ([4]; in vivo): 3; Sakatis et al. (2012) ([4]; in vivo): Hepatotoxic
CC(C)NNC(=O)c1ccncc1 [Iproniazid] | 40 | Extensive | Negative | – | – | – | – | – | – | hepatotoxicity evaluation in CD-spheroids [3]: predicted to be DILI negative; Suzuki et al. (2010) [4, 6]: 3; FDA (Severity) [4, 7]: most DILI concern; FDA (0-8) [4, 8]: Withdrawn; DILI in vivo [4, 9]: POS; Classified as [4, 10]: POS; DILI in vivo [4, 11]: POS; Sakatis et al. (2012) ([4]; in vivo): Hepatotoxic; Type of DILI [4, 12]: Hepatocellular injury
CC(C)OC(=O)C(C)(C)Oc1ccc(C(=O)c2ccc(Cl)cc2)cc1 [Fenofibrate] | 12100 | Extensive | Positive | POS | High DILI concern | POS | 3 | Hepatocellular injury, Cholestatic injury or Mixed hepatitis | Positive | FDA (Severity) ([4]; in vivo): less DILI concern; O'Brien et al. (2003) ([4]; in vivo): Moderately; Sakatis et al. (2012) ([4]; in vivo): Hepatotoxic; Suzuki et al. (2010) ([4]; in vivo): 1
CCN(CC)Cc1cc(Nc2ccnc3cc(Cl)ccc23)ccc1O [Amodiaquine] | 1910 | Extensive | Positive | POS | Severe DILI | POS | – | Hepatocellular injury | – | hepatotoxicity evaluation in CD-spheroids ([3]; human, 14 days): highly toxic at 5× and 20× of therapeutic serum levels; Clinical DILI classification (Figure 5) ([4]; in vivo): DILI positive
CN(C)CCN(Cc1cccs1)c1ccccn1 [Methapyrilene] | 170 | Moderate | – | NEG | DILI negative | NEG | – | Non-hepatotoxic | – | –
Fc1ccc([C@@H]2CCNC[C@H]2COc2ccc3c(c2)OCO3)cc1 [Paroxetine] | 50 | Extensive | Negative | – | – | – | – | – | – | Suzuki et al. (2010) [4, 6]: 2; FDA (Severity) [4, 7]: less DILI concern; FDA (0-8) [4, 8]: 8; DILI in vivo [4, 9]: NEG; Classified as [4, 10]: NEG; DILI in vivo [4, 11]: NEG; Xu et al. (2008) [4, 13]: Negative; O'Brien et al. (2003) [4, 14]: Moderately; Type of DILI [4, 12]: Non-hepatotoxic
C[C@]12CCC(=O)C=C1CC[C@@H]1[C@@H]2[C@@H](O)C[C@@]2(C)[C@H]1CC[C@]2(O)C(=O)CO [Hydrocortisone] | 840 | – | Negative | NEG | DILI negative | NEG | 0 | Non-hepatotoxic | Negative | 2Dsw (Xu 2008) 100x [5, 15]: Negative
CCc1c(C)[nH]c2c1C(=O)C(CN1CCOCC1)CC2 (centres unmarked) [Molindone] | 1540 | – | Negative | POS | High DILI concern | POS | – | Hepatocellular injury | – | 2Dsw (Xu 2008) 100x [5, 15]: Negative
CN1Cc2c(N)cccc2C(c2ccccc2)C1 (centres unmarked) [Nomifensine] | 5640 | Moderate | Positive | – | – | – | – | – | – | Suzuki et al. (2010) [4, 6]: 3; FDA (Severity) [4, 7]: most DILI concern; FDA (0-8) [4, 8]: Withdrawn; DILI in vivo [4, 9]: POS; Classified as [4, 10]: POS; DILI in vivo [4, 11]: POS; Xu et al. (2008) [4, 13]: Positive; Type of DILI [4, 12]: Cholestatic injury
CCCCNc1cc(C(=O)O)cc(S(N)(=O)=O)c1Oc1ccccc1 [Bumetanide] | 80 | Moderate | Negative | POS | High DILI concern | POS | 3 | – | Positive | –
CC(C)NCC(O)COc1cccc2ccccc12 (centres unmarked) [Propranolol] | – | Extensive | – | – | – | – | – | – | – | –
O=C(c1ccccc1)c1ccc2n1CCC2C(=O)O (centres unmarked) [Ketorolac] | 2390 | Moderate | Positive | – | – | – | – | – | – | Guo et al. (2005) ([4]; DILI classification score, ref Guo et al. (2005)): 2; Suzuki et al. (2010) [4, 6]: 1; FDA (Severity) [4, 7]: less DILI concern; FDA (0-8) [4, 8]: 3; DILI in vivo [4, 9]: POS; Classified as [4, 10]: POS; DILI in vivo [4, 11]: POS; Xu et al. (2008) [4, 13]: Positive; O'Brien et al. (2003) [4, 14]: Severely
CCCSc1ccc2nc(NC(=O)OC)[nH]c2c1 [Albendazole] | 900 | – | Negative | POS | Severe DILI | POS | 7 | Cholestatic injury or Mixed hepatitis | Positive | hepatotoxicity evaluation in CD-spheroids [3]: predicted to be DILI negative; Suzuki et al. (2010) ([4]; in vivo): 1; hepatotoxicity detection in 2D sandwich cultures of PHH ([5]; 100× cmax, 24 h, high content imaging, ref Xu et al., 2008): flagged as hepatotoxic; 2Dsw (Xu 2008) 100x [5, 15]: Positive; reactive oxygen species levels in 2D sandwich cultures of PHH ([5]; ref Xu et al., 2008): only slight increases in reactive oxygen species levels
NC12CC3CC(CC(C3)C1)C2 [Amantadine] | 4300 | – | Negative | NEG | DILI negative | NEG | 3 | Non-hepatotoxic | Negative | FDA (Severity) ([4]; in vivo): less DILI concern; 2Dsw (Xu 2008) 100x [5]: Negative
Cc1cccc(C)c1OCC(C)N (centres unmarked) [Mexiletine] | 35000 | – | Positive | POS | High DILI concern | POS | 3 | Hepatocellular injury or Mixed hepatitis | Positive | FDA (Severity) ([4]; in vivo): less DILI concern; Suzuki et al. (2010) ([4]; in vivo): 1; 2Dsw (Xu 2008) 100x [5]: Positive
